Molecular target: HIF-2α transcriptional activity
Experiment: Hypoxia-responsive element-driven luciferase (HRE-Luc) screen
Format: cell-based, human
Details: 786-0 ccRCC cells stably expressing HRE-Luc; 24 h treatment; range of IC50 values
Protocol: Screens for inhibitory activity of compounds described herein were performed using 786-0 ccRCC cells that stably express HRE-Luc: 5 copies of the hypoxia-responsive element (HRE) fused to the pGL3 luciferase reporter (Promega Corp, Madison WI). 786-0 cells are pVHL deficient and thus constitutively express HIF-2α independently of cellular oxygen tension. Since 786-0 cells lack HIF-1α, HRE-driven luciferase activity is primarily HIF-2α driven, and has been previously validated. Cells were maintained at log phase growth in […] (DMEM) with 10% FBS in a humidified incubator at 37° C. with 5% CO2. For screening assays, cells were seeded at a density of 4,000 cells in 50 μl of complete media/well in quadruplicate wells/point in a 96-well plate. After 24 h, 50 μl of a 2× concentration of test compound was added to each well. Compounds were diluted from a 5-10 mM stock in DMSO and final concentrations of DMSO in each well in controls and treated wells were kept constant at ≤0.6% DMSO. After 24 h treatment, luciferase activity was measured using the Steady-Glo Luciferase assay system (Promega Corp) according to the manufacturer's protocol. Cell viability was measured in quadruplicate parallel wells using resazurin as recommended by the manufacturer (R&D systems, Minneapolis, MN). Data for luciferase and resazurin were normalized to DMSO treated controls (defining 100%) and wells containing assay reagent but no cells (defining 0%) and graphed using the log inhibitor versus normalized response option in Graphpad Prism 9.3.1 software. Representative data determined using Steady-Glo luciferase and resazurin are shown in FIGS. 1A and 1B respectively, with error bars showing SD. Filled diamonds, empty squares and empty triangles indicate treatment with 3, 8 and 22 respectively with results for HRE-Luc shown in FIG. 1A.

With `COc1nc(C)cc2[nH]c(Nc3nnc([C@H]4CC[C@H](OC)CC4)o3)nc12` [Compound 99, N-(4-methoxy-6-methyl-1H-imidazo[4,5-c]pyridin-2-yl)-5-((1r,4r)-4-methoxycyclohexyl)-1,3,4-oxadiazol-2-amine] the IC50 was less than 10 µM.

Same assay, conditions: Homo sapiens, 786-0, 24 h, 786-0 ccRCC cells stably expressing HRE-Luc; 24 h treatment; range of IC50 values

First: COc1ccc(-c2cnc(Nc3nc4c(OC)nccc4[nH]3)o2)cc1OC [Compound 59, 5-(3,4-dimethoxyphenyl)-N-(4-methoxy-1H-imidazo[4,5-c]pyridin-2-yl)oxazol-2-amine]
Second: COc1ccc(-c2nnc(Nc3nc4c(OC)cccc4[nH]3)o2)cc1OC [Compound 84, 5-(3,4-dimethoxyphenyl)-N-(4-methoxy-1H-benzo [d]imidazol-2-yl)-1,3,4-oxadiazol-2-amine]
The IC50 of the first is higher: 50 to 100 µM for the first, less than 10 µM for the second. The second is the more potent here.

`COc1nccc2[nH]c(Nc3nnc([C@H]4CC[C@@H](OC)CC4)o3)nc12` [Compound 62, N-(4-methoxy-1H-imidazo[4,5-c]pyridin-2-yl)-5-((1s,4s)-4-methoxycyclohexyl)-1,3,4-oxadiazol-2-amine] and `COc1nccc2[nH]c(Nc3nnc([C@H]4CC[C@H](OC)CC4)o3)nc12` [Compound 63, N-(4-methoxy-1H-imidazo[4,5-c]pyridin-2-yl)-5-((1r,4r)-4-methoxycyclohexyl)-1,3,4-oxadiazol-2-amine] cannot be ordered by IC50: less than 10 µM for the first, less than 10 µM for the second.

First: COc1nccc2nc(Nc3nnc(C4CCN(C)CC4)o3)[nH]c12 [Compound 64, N-(4-methoxy-3H-imidazo[4,5-c]pyridin-2-yl)-5-(1-methylpiperidin-4-yl)-1,3,4-oxadiazol-2-amine]
Second: COc1cccc2nc(Nc3nnc(C4CCN(C)CC4)o3)[nH]c12 [Compound 74, N-(7-methoxy-1H-benzo[d]imidazol-2-yl)-5-(1-methylpiperidin-4-yl)-1,3,4-oxadiazol-2-amine]
The IC50 of the first is lower: less than 10 µM for the first, 10 to 50 µM for the second.

Going from `COc1nccc2nc(Nc3nnc(N4CC(C)OC(C)C4)o3)[nH]c12` (stereo not drawn) [Compound 70, 5-(2,6-dimethylmorpholino)-N-(4-methoxy-3H-imidazo[4,5-c]pyridin-2-yl)-1,3,4-oxadiazol-2-amine] to `COc1cccc2[nH]c(Nc3nnc(N4C[C@H](C)C[C@H](C)C4)o3)nc12` [Compound 92, 5-((3R,5S)-3,5-dimethylpiperidin-1-yl)-N-(4-methoxy-1H-benzo[d]imidazol-2-yl)-1,3,4-oxadiazol-2-amine], the IC50 rises from less than 10 µM to greater than 100 µM.

Compared with `COc1cccc2nc(Nc3nnc(N4CCC(OC)CC4)o3)[nH]c12` [Compound 71, N-(7-methoxy-1H-benzo[d]imidazol-2-yl)-5-(4-methoxypiperidin-1-yl)-1,3,4-oxadiazol-2-amine], `COc1cccc2nc(Nc3nnc(N4CCOCC4)o3)[nH]c12` [Compound 72, N-(7-methoxy-1H-benzo[d]imidazol-2-yl)-5-morpholino-1,3,4-oxadiazol-2-amine] is higher in IC50: less than 10 µM for the first, 10 to 50 µM for the second. The first is the more potent here.

First: COc1cccc2[nH]c(Nc3nnc(N4CCN(C)CC4)o3)nc12 [Compound 73, N-(4-methoxy-1H-benzo[d]imidazol-2-yl)-5-(4-methylpiperazin-1-yl)-1,3,4-oxadiazol-2-amine]
Second: COc1cccc2[nH]c(Nc3nnc(N4CCS(=O)(=O)CC4)o3)nc12 [Compound 76, 4-(5-((4-methoxy-1H-benzo[d]imidazol-2-yl)amino)-1,3,4-oxadiazol-2-yl)thiomorpholine 1,1-dioxide]
The IC50 of the first is lower: 50 to 100 µM for the first, greater than 100 µM for the second. The first is the more potent here.

Compared with `COc1ccc(-c2nnc(Nc3nc4cccc(OC)c4[nH]3)o2)cc1` [Compound 82, N-(7-methoxy-1H-benzo[d]imidazol-2-yl)-5-(4-methoxyphenyl)-1,3,4-oxadiazol-2-amine], `COc1ccc(-c2nnc(Nc3nc4c(OC)cccc4[nH]3)o2)c(C)c1` [Compound 83, N-(4-methoxy-1H-benzo[d]imidazol-2-yl)-5-(4-methoxy-2-methylphenyl)-1,3,4-oxadiazol-2-amine] is higher in IC50: 10 to 50 µM for the first, greater than 100 µM for the second. The first is the more potent here.

`COc1ccc(-c2nnc(Nc3nc4c(OC)cccc4[nH]3)o2)cc1F` [Compound 85, 5-(3-fluoro-4-methoxyphenyl)-N-(4-methoxy-1H-benzo[d]imidazol-2-yl)-1,3,4-oxadiazol-2-amine] and `CCOc1ccc(-c2nnc(Nc3nc4c(OC)cccc4[nH]3)o2)cc1OCC` [Compound 88, 5-(3,4-diethoxyphenyl)-N-(4-methoxy-1H-benzo[d]imidazol-2-yl)-1,3,4-oxadiazol-2-amine] cannot be ordered by IC50: greater than 100 µM for the first, greater than 100 µM for the second.

Compared with `COc1cccc2[nH]c(Nc3nnc(-c4ccc5c(c4)OCCO5)o3)nc12` [Compound 86, 5-(2,3-dihydrobenzo[b][1,4]dioxin-6-yl)-N-(4-methoxy-1H-benzo[d]imidazol-2-yl)-1,3,4-oxadiazol-2-amine], `COc1cccc2[nH]c(Nc3nnc(-c4ccc5c(c4)CCO5)o3)nc12` [Compound 87, 5-(2,3-dihydrobenzofuran-5-yl)-N-(4-methoxy-1H-benzol[d]imidazol-2-yl)-1,3,4-oxadiazol-2-amine] is lower in IC50: 50 to 100 µM for the first, 10 to 50 µM for the second.

Going from `COc1cccc2[nH]c(Nc3nnc(-c4ccc5occc5c4)o3)nc12` [Compound 89, 5-(benzofuran-5-yl)-N-(4-methoxy-1H-benzo[d]imidazol-2-yl)-1,3,4-oxadiazol-2-amine] to `[2H]C([2H])([2H])Oc1ccc(-c2nnc(Nc3nc4c(OC)nccc4[nH]3)o2)cc1OC([2H])([2H])[2H]` [Compound 97, 5-(3,4-Dimethoxy-d3-phenyl)-N-(4-methoxy-1H-imidazo[4,5-c]pyridin-2-yl)-1,3,4-oxadiazol-2-amine], the IC50 falls from greater than 100 µM to less than 10 µM.

First: COc1cccc2nc(Nc3nnc(C4CCC(C(C)(C)C)CC4)o3)[nH]c12 (stereo not drawn) [Compound 94, 5-(4-(tert-butyl)cyclohexyl)-N-(7-methoxy-1H-benzo[d]imidazol-2-yl)-1,3,4-oxadiazol-2-amine]
Second: COc1cccc2nc(Nc3nnc(C4C[C@H]5CC[C@@H]4C5)o3)[nH]c12 (stereo partly drawn) [Compound 96, 5-((1R,4S)-bicyclo[2.2.1]heptan-2-yl)-N-(7-methoxy-1H-benzo[d]imidazol-2-yl)-1,3,4-oxadiazol-2-amine]
The IC50 of the first is lower: less than 10 µM for the first, 10 to 50 µM for the second. The first is the more potent here.

`COc1nc(C)cc2[nH]c(Nc3nnc([C@H]4CC[C@@H](OC)CC4)o3)nc12` [Compound 100, N-(4-methoxy-6-methyl-1H-imidazo[4,5-c]pyridin-2-yl)-5-((1s,4s)-4-methoxycyclohexyl)-1,3,4-oxadiazol-2-amine] was tested, and the IC50 was less than 10 µM.

Source: patent US20250346588A1, “IMIDAZOPYRIDINE AND OXAZOLOPYRIDINE DERIVATIVES AND ANALOGS THEREOF, METHODS OF PREPARATION THEREOF, METHODS OF HIF-1/2A PATHWAY INHIBITION, AND INDUCTION OF FERROPTOSIS” (KUDA THERAPEUTICS, INC., priority 2022, published 2025)
